Laboratory results reported in patent US7205295B2, “Benzoxazin-3-ones and derivatives thereof as therapeutic agents” (Warner-Lambert Company LLC, priority 2002, dated 2007).

Biological target: T1, PI3Kγ (p101/p110γ protein) (Homo sapiens, UniProt P48736)
T1 construct: HA; made in house; host or cells: Spodoptera frugiperda (Sf9) cells, baculovirus co-infection
Test: PI3Kγ In Vitro Kinase Assay
Format: biochemical
Conditions: purified recombinant p101/p110γ with G protein β1/γ2 subunits; 20 μM ATP, 25 μM PIP2; 20 minutes at room temperature
Summary of the method: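 Sf9-expressed, purified human p101/p110γ (2.7 nM) was activated by Gβ1/γ2 (57.7 nM) and reacted with 20 μM ATP plus [γ-32P]ATP on PIP2 (25 μM)/PE (300 μM) micelles with 10 mM MgCl2 in HEPES buffer. Reactions ran 20 min at room temperature. Filter-captured radiolabeled PIP3 was counted by scintillation.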

T1 sequence (P48736 whole entry, species assumed): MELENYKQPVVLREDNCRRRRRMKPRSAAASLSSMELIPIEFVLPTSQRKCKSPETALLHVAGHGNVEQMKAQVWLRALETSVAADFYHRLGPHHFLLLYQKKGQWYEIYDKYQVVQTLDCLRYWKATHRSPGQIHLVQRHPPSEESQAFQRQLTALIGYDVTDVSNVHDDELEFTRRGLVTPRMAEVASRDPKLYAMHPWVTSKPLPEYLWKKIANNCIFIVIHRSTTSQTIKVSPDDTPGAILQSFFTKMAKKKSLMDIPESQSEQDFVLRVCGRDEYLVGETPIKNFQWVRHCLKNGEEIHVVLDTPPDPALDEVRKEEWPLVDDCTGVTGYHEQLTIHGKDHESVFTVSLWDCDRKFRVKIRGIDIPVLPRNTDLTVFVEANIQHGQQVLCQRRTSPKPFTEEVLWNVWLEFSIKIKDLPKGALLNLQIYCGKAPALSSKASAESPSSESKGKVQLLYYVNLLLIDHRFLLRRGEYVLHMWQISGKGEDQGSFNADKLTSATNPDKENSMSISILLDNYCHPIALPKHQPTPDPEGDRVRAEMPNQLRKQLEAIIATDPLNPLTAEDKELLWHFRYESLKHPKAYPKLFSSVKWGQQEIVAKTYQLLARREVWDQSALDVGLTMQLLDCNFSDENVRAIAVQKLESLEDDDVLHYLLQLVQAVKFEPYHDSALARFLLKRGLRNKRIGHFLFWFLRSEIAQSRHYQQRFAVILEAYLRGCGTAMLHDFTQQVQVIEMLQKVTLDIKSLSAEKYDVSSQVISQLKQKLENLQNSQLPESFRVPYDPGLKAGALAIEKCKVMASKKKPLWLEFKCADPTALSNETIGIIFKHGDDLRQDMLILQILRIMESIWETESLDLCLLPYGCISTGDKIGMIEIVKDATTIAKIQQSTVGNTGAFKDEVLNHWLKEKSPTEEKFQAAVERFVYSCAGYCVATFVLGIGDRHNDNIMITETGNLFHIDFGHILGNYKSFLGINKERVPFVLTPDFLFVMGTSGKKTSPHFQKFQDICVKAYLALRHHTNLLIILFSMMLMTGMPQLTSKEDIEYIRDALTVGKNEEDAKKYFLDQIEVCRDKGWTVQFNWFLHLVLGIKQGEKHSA
T1 sequence (Q8WYR1 whole entry partner, species assumed): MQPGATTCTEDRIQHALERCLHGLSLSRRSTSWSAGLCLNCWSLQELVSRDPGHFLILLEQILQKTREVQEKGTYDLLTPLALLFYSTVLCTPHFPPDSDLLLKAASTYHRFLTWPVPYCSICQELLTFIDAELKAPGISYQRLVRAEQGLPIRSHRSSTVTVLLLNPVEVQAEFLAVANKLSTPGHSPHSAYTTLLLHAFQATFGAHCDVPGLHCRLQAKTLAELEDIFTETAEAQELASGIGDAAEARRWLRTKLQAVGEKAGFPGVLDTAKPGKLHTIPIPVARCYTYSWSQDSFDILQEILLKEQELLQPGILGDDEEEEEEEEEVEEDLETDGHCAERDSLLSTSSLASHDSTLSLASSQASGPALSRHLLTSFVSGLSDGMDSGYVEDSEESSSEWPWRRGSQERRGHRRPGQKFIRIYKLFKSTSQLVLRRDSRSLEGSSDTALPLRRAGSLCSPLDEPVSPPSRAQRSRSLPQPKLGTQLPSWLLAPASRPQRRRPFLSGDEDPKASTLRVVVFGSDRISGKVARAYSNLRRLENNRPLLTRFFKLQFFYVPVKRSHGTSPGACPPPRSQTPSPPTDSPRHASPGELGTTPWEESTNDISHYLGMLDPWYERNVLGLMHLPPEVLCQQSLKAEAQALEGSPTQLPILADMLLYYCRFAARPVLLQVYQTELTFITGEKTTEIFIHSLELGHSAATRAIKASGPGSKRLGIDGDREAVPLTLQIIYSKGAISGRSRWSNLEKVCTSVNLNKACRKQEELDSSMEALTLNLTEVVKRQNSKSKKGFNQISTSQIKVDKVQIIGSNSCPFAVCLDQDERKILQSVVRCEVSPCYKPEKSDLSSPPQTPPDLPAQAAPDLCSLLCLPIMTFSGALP

Q: With O=C1NC(=S)OC1=Cc1ccc2c(c1)N(CC1CCCCC1)C(=O)CO2 [Example 261, 4-Cyclohexylmethyl-6-(4-oxo-2-thioxo-oxazolidin-5-ylidenemethyl)-4H-1,4-benzoxazin-3-one] as the compound, how does the IC50 read?
A: The IC50 was 2 nM.

Q: With O=C1NC(=S)SC1=Cc1cc(F)c2c(c1)N(Cc1ccc(Cl)s1)C(=O)CO2 [Example 319, 4-(5-Chloro-thiophen-2-ylmethyl)-8-fluoro-6-(4-oxo-2-thioxo-thiazolidin-5-ylidenemethyl)-4H-benzo[1,4]oxazin-3-one] as the compound, how does the IC50 read?
A: Its IC50 is 5 nM.

Q: With O=C1NC(=S)S/C1=C\c1cc(F)c2c(c1)N(Cc1ccc(Cl)c(Cl)c1)C(=O)CO2 [Example 341, 4-(3,4-Dichloro-benzyl)-8-fluoro-6-[4-oxo-2-thioxo-thiazolidin-(5Z)-ylidenemethyl]-4H-benzo[1,4]oxazin-3-one] as the compound, how does the IC50 read?
A: The IC50 was 3 nM.

Q: For O=C1NC(=S)SC1=Cc1cc(F)c2c(c1)N(Cc1ccc(CN3CCOCC3)cc1)C(=O)CO2 [Example 71, 8-Fluoro-4-(4-morpholin-4-ylmethyl-benzyl)-6-(4-oxo-2-thioxo-thiazolidin-5-ylidenemethyl)-4H-1,4-benzoxazin-3-one], which IC50 is on record?
A: The IC50 was 6 nM.

Q: With CC(C)(C)c1cc(CN2C(=O)COc3ccc(C=C4SC(=S)NC4=O)cc32)cc(-c2ccccc2)c1 [Example 65, 4-(5-tert-Butyl-biphenyl-3-ylmethyl)-6-(4-oxo-2-thioxo-thiazolidin-5-ylidenemethyl)-4H-1,4-benzoxazin-3-one] as the compound, how does the IC50 read?
A: The IC50 was 95 nM.

Q: How did the IC50 turn out when O=C1NC(=S)SC1=Cc1cc(F)c2c(c1)N(Cc1ccc(F)cc1)C(=O)CO2 [Example 301, 8-Fluoro-4-(4-fluoro-benzyl)-6-(4-oxo-2-thioxo-thiazolidin-5-ylidenemethyl)-4H-benzo[1,4]oxazin-3-one] was run?
A: Its IC50 is 1 nM.

Q: COC(C)(C)c1cc(CN2C(=O)COc3ccc(/C=C4\SC(=S)NC4=O)cc32)cc(C(C)(C)C)c1 [Example 283, 4-[3-tert-Butyl-5-(1-methoxy-1-methyl-ethyl)-benzyl]-6-[4-oxo-2-thioxo-thiazolidin-(5Z)-ylidenemethyl]-4H-benzo[1,4]oxazin-3-one] was tested. Which IC50 did it give?
A: Its IC50 is 11 nM.

Q: Which IC50 does the source give for Cc1cc(CN2CCN(C)CC2)cc(CN2C(=O)COc3ccc(C=C4SC(=S)NC4=O)cc32)c1 [Example 255, 4-[3-Methyl-5-(4-methyl-piperazin-1-ylmethyl)-benzyl]-6-(4-oxo-2-thioxo-thiazolidin-5-ylidenemethyl)-4H-1,4-benzoxazin-3-one] here?
A: The IC50 was 15 nM.

Q: How did the IC50 turn out when CC(C)Sc1cccc(CN2C(=O)COc3ccc(C=C4SC(=S)NC4=O)cc32)c1 [Example 254, 4-(3-Isopropylsulfanyl-benzyl)-6-(4-oxo-2-thioxo-thiazolidin-5-ylidenemethyl)-4H-1,4-benzoxazin-3-one] was run?
A: The IC50 was 10 nM.

Q: How did the IC50 turn out when O=C1NC(=S)SC1=Cc1ccc2c(c1)N(Cc1cnc3ccccc3c1)C(=O)CO2 [Example 323, 6-(4-Oxo-2-thioxo-thiazolidin-5-ylidenemethyl)-4-quinolin-3-ylmethyl-4H-benzo[1,4]oxazin-3-one] was run?
A: The IC50 was 29 nM.

Q: With CC(C)(C)c1cc(CN2C(=O)COc3ccc(C=C4SC(=S)NC4=O)cc32)cc(C(=O)N2CCOCC2)c1 [Example 275, 4-[3-tert-Butyl-5-(morpholine-4-carbonyl)-benzyl]-6-(4-oxo-2-thioxo-thiazolidin-5-ylidenemethyl)-4H-1,4-benzoxazin-3-one; compound with ethane-1,2-diamine] as the compound, how does the IC50 read?
A: The IC50 was 25 nM.

Q: How did the IC50 turn out when CC(=O)OCc1ccccc1CN1C(=O)COc2ccc(C=C3SC(=S)NC3=O)cc21 [Example 22, Acetic acid 2-[3-oxo-6-(4-oxo-2-thioxo-thiazolidin-5-ylidenemethyl)-2,3-dihydro-1,4-benzoxazin-4-ylmethyl]-benzyl ester] was run?
A: The IC50 was 17 nM.

Q: For CC(C)(C)c1cc(C(C)(C)C)nc(CN2C(=O)COc3c(F)cc(CC4SC(=S)NC4=O)cc32)n1 (stereo not shown) [Example 235, 4-(4,6-Di-tert-butyl-pyrimidin-2-ylmethyl)-8-fluoro-6-(4-oxo-2-thioxo-thazolidin-5-ylmethyl)-4H-benzo[1,4]oxazin-3-one], which IC50 is on record?
A: The IC50 was 1240 nM.

Q: Cc1cccc(C)c1CN1C(=O)COc2ccc(C=C3SC(=S)NC3=O)cc21 [Example 31, 4-(2,6-Dimethyl-benzyl)-6-(4-oxo-2-thioxo-thiazolidin-5-ylidenemethyl)-4H-1,4-benzoxazin-3-one] was tested. Which IC50 did it give?
A: Its IC50 is 83 nM.

Q: Which IC50 does the source give for Cc1cc(C)cc(CN2C(=O)COc3c(Cl)cc(C=C4SC(=S)NC4=O)cc32)c1 [Example 67, 8-Chloro-4-(3,5-dimethyl-benzyl)-6-(4-oxo-2-thioxo-thiazolidin-5-ylidenemethyl)-4H-1,4-benzoxazin-3-one] here?
A: Its IC50 is 60 nM.

Q: With CC(C)(C)c1cc(C(C)(C)C)nc(CN2C(=O)COc3ccc(CC4SC(=S)NC4=O)cc32)n1 (stereo not shown) [Example 234, 4-(4,6-Di-tert-butyl-pyrimidin-2-ylmethyl)-6-(4-oxo-2-thioxo-thazolidin-5-ylmethyl)-4H-benzo[1,4]oxazin-3-one] as the compound, how does the IC50 read?
A: The IC50 was 2070 nM.

Q: For CS(=O)(=O)c1cccc(CN2C(=O)COc3ccc(/C=C4\SC(=S)NC4=O)cc32)c1 [Example 270, 4-(3-Methanesulfonyl-benzyl)-6-[4-oxo-2-thioxo-thiazolidin-(5Z)-ylidenemethyl]-4H-benzo[1,4]oxazin-3-one], which IC50 is on record?
A: Its IC50 is 11 nM.

Q: Which IC50 does the source give for Cc1cncc(CN2C(=O)COc3ccc(C=C4SC(=S)NC4=O)cc32)c1 [Example 334, 4-(5-Methyl-pyridin-3-ylmethyl)-6-(4-oxo-2-thioxo-thiazolidin-5-ylidenemethyl)-4H-1,4-benzoxazin-3-one] here?
A: Its IC50 is 25 nM.

Q: Which IC50 does the source give for O=C1NC(=S)SC1=Cc1ccc2c(c1)N(Cc1ccc(CN3CCCCC3)cc1)C(=O)CO2 [Example 19, 4-(4-Piperidin-1-ylmethyl-benzyl)-6-(4-oxo-2-thioxo-thiazolidin-5-ylidenemethyl)-4H-1,4-benzoxazin-3-one] here?
A: The IC50 was 8 nM.

Q: With “5-{4-[3-(4-Methoxy-phenyl)-propyl]-3-oxo-3,4-dihydro-2H-benzo[1,4]oxazin-6-ylmethylene}-thiazolidine-2,4-dione [Example 125]” as the compound, how does the IC50 read?
A: Its IC50 is 18 nM.

Q: With CC(C)(C)c1cc(CN2C(=O)COc3c(F)cc(C=C4SC(=S)NC4=O)cc32)cc(C(C)(C)C)c1 [Example 54, 4-(3,5-Di-tert-butyl-benzyl)-8-fluoro-6-(4-oxo-2-thioxo-thiazolidin-5-ylidenemethyl)-4H-1,4-benzoxazin-3-one] as the compound, how does the IC50 read?
A: Its IC50 is 40 nM.

Q: For Cc1cc(CN2C(=O)COc3ccc(C=C4SC(=S)N(CC(=O)O)C4=O)cc32)c(C(F)(F)F)o1 [Example 321, {5-[4-(5-Methyl-2-triflouromethyl-furan-3-ylmethyl)-3-oxo-3,4-dihydro-2H-benzo[1,4]oxazin-6-ylmethylene]-4-oxo-2-thioxo-thiazolidin-3-yl}-acetic acid; Compound with ethane-1,2-diamine], which IC50 is on record?
A: The IC50 was 9730 nM.

Q: How did the IC50 turn out when CN1CCN(Cc2ccc(CN3C(=O)COc4ccc(C=C5SC(=S)NC5=O)cc43)cc2)CC1 [Example 33, 4-[4-(4-Methyl-piperazin-1-ylmethyl)-benzyl]-6-(4-oxo-2-thioxo-thiazolidin-5-ylidenemethyl)-4H-1,4-benzoxazin-3-one] was run?
A: The IC50 was 4 nM.

Q: How did the IC50 turn out when “4-(3-Chloro-4-fluoro-benzyl)-8-fluoro-6-(4-oxo-2-thioxo-thiazolidin-5-ylidenemethyl)-4H-benzo[1,4]oxazin-3-one [Example 309]” was run?
A: Its IC50 is 2 nM.

Q: Which IC50 does the source give for O=C1NC(=S)SC1=Cc1ccc2c(c1)N(Cc1cccc(S(=O)(=O)N3CCOCC3)c1)C(=O)CO2 [Example 257, 4-[3-(Morpholine-4-sulfonyl)-benzyl]-6-(4-oxo-2-thioxo-thiazolidin-5-ylidenemethyl)-4H-1,4-benzoxazin-3-one] here?
A: Its IC50 is 28 nM.

Q: With O=C1NC(=S)SC1=Cc1cc(F)c2c(c1)N(Cc1ccccc1)C(=O)CO2 [Example 46, 4-Benzyl-8-fluoro-6-(4-oxo-2-thioxo-thiazolidin-5-ylidenemethyl)-4H-1,4-benzoxazin-3-one] as the compound, how does the IC50 read?
A: Its IC50 is 8 nM.

Q: With CCOC(=O)N1CCN(Cc2ccc(CN3C(=O)COc4ccc(C=C5SC(=O)NC5=O)cc43)cc2)CC1 [Example 240, 4-{4-[6-(2,4-Dioxo-thiazolidin-5-ylidenemethyl)-3-oxo-2,3-dihydro-1,4-benzoxazin-4-ylmethyl]-benzyl}-piperazine-1-carboxylic acid ethyl ester] as the compound, how does the IC50 read?
A: Its IC50 is 32 nM.

Q: With CN1CC(=O)N(Cc2ccccc2)c2cc(C=C3SC(=S)NC3=O)ccc21 [Example 197, 1-Benzyl-4-methyl-7-(4-oxo-2-thioxo-thiazolidin-5-ylidenemethyl)-3,4-dihydro-1H-quinoxalin-2-one] as the compound, how does the IC50 read?
A: Its IC50 is 390 nM.

Q: Which IC50 does the source give for CC(C)(C)c1cc(CN2CCOCC2)cc(CN2C(=O)COc3ccc(/C=C4\SC(=O)NC4=O)cc32)c1 [Example 277, 5-[1-[4-(3-tert-Butyl-5-morpholin-4-ylmethyl-benzyl)-3-oxo-3,4-dihydro-2H-benzo[1,4]oxazin-6-yl]-meth-(Z)-ylidene]-thiazolidine-2,4-dione] here?
A: Its IC50 is 5 nM.

Q: How did the IC50 turn out when O=C1COc2ccc(C=C3NC(=O)NC3=O)cc2N1 [Example 87, 5-(3-Oxo-3,4-dihydro-2H-benzo[1,4]oxazin-6-ylmethylene)-imidazolidine-2,4-dione] was run?
A: Its IC50 is 16100 nM.

Q: With Cc1cc(CN2C(=O)COc3ccc(C=C4SC(=S)NC4=O)cc32)cc(-c2nccs2)c1 [Example 119, 4-(3-Methyl-5-thiazol-2-yl-benzyl)-6-(4-oxo-2-thioxo-thiazolidin-5-ylidenemethyl)-4H-benzo[1,4]oxzain-3-one] as the compound, how does the IC50 read?
A: The IC50 was 19 nM.

Q: For Cc1cc(C)cc(C(C)N2C(=O)COc3ccc(C=C4SC(=S)NC4=O)cc32)c1 (stereo not shown) [Example 218, 4-[1-(3,5-Dimethyl-phenyl)-ethyl]-6-(4-oxo-2-thioxo-thiazolidin-5-ylidenemethyl)-4H-1,4-benzoxazin-3-one], which IC50 is on record?
A: Its IC50 is 55 nM.

Q: For O=C1NC(=S)SC1=Cc1ccc2c(c1)N(Cc1cccc(OC(F)F)c1)C(=O)CO2 [Example 164, 4-(3-Difluoromethoxy-benzyl)-6-(4-oxo-2-thioxo-thiazolidin-5-ylidenemethyl)-4H-1,4-benzoxazin-3-one], which IC50 is on record?
A: The IC50 was 13 nM.

Q: COCCN(CCCN1C(=O)COc2c(F)cc(C=C3SC(=S)NC3=O)cc21)CCOC [Example 313] was tested. Which IC50 did it give?
A: Its IC50 is 35 nM.
